Experimental data from PMC5942189 (Journal of the American Chemical Society, 2018).

How the values were obtained:
[1] = tested on: Escherichia coli W3110 (wild-type); experiment: MIC determination in Mueller-Hinton broth, E. coli W3110; assay type: cell-based; conditions: standard Mueller-Hinton broth assay
[2] = tested on: multi-drug-resistant Acinetobacter baumannii (Ab) 5075; experiment: MIC determination in Mueller-Hinton broth, A. baumannii 5075; assay type: cell-based; conditions: multi-drug-resistant A. baumannii Ab5075; standard Mueller-Hinton broth assay
[3] = tested on: E. coli WD101 (isogenic CAMP-resistant mutant, colistin-resistant); experiment: MIC determination in Mueller-Hinton broth, E. coli WD101; assay type: cell-based, Escherichia coli; conditions: standard Mueller-Hinton broth assay

Substance | MIC [1] | MIC [2] | MIC [3]
N-AlTRSSRAGLQFPVGRVHRLLRKF-Hy (sidechain bridge or staple) [HyRes buforin] | 8 µM | 4 µM | 16 µM
N-XTRSSRAGLQFPVGRVHRLLRXK-C [DiHy buforin] | – | 64 µM | –
N-XTRSSRAGLQFPXVGRVHRLLRXK-C [TriAl buforin] | – | 64 µM | –
